Measurements as given in the CheMixHub viscosity set.
Where “and” joins values, the source holds several entries; their conditions need not be identical. Equal values may be shown once.

Assay: xn = mol fraction of the nth substance listed

CC(=O)N(C)C + O
Conditions	viscosity
298.15 K, 101 kPa, x1 = 0.0203	1.214 mPa·s
298.15 K, 101 kPa, x1 = 0.025	1.265 mPa·s
298.15 K, 101 kPa, x1 = 0.0502	1.653 mPa·s
298.15 K, 101 kPa, x1 = 0.065	1.871 mPa·s
298.15 K, 101 kPa, x1 = 0.0703	1.982 mPa·s
298.15 K, 101 kPa, x1 = 0.1	2.467 mPa·s
298.15 K, 101 kPa, x1 = 0.1011	2.413 mPa·s
298.15 K, 101 kPa, x1 = 0.12	2.754 mPa·s
298.15 K, 101 kPa, x1 = 0.1203	2.797 mPa·s
298.15 K, 101 kPa, x1 = 0.1495	3.161 mPa·s
298.15 K, 101 kPa, x1 = 0.1497	3.223 mPa·s
298.15 K, 101 kPa, x1 = 0.1698	3.471 mPa·s
298.15 K, 101 kPa, x1 = 0.2003	3.774 mPa·s
298.15 K, 101 kPa, x1 = 0.2004	3.728 mPa·s
298.15 K, 101 kPa, x1 = 0.22	3.908 mPa·s
298.15 K, 101 kPa, x1 = 0.2497	4.023 mPa·s
298.15 K, 101 kPa, x1 = 0.2512	3.94 mPa·s
298.15 K, 101 kPa, x1 = 0.2701	4.04 mPa·s
298.15 K, 101 kPa, x1 = 0.3	3.99 mPa·s
298.15 K, 101 kPa, x1 = 0.3002	3.941 mPa·s
298.15 K, 101 kPa, x1 = 0.32	3.917 mPa·s
298.15 K, 101 kPa, x1 = 0.3501	3.692 mPa·s and 3.761 mPa·s
298.15 K, 101 kPa, x1 = 0.4002	3.426 mPa·s
298.15 K, 101 kPa, x1 = 0.4009	3.341 mPa·s
298.15 K, 101 kPa, x1 = 0.4503	3.059 mPa·s
298.15 K, 101 kPa, x1 = 0.5003	2.69 mPa·s
298.15 K, 101 kPa, x1 = 0.5018	2.606 mPa·s
298.15 K, 101 kPa, x1 = 0.5999	2.09 mPa·s
298.15 K, 101 kPa, x1 = 0.6031	1.995 mPa·s
298.15 K, 101 kPa, x1 = 0.6505	1.777 mPa·s
298.15 K, 101 kPa, x1 = 0.7	1.646 mPa·s
298.15 K, 101 kPa, x1 = 0.7005	1.592 mPa·s
298.15 K, 101 kPa, x1 = 0.755	1.419 mPa·s
298.15 K, 101 kPa, x1 = 0.8002	1.329 mPa·s
298.15 K, 101 kPa, x1 = 0.8048	1.284 mPa·s
298.15 K, 101 kPa, x1 = 0.8499	1.212 mPa·s
298.15 K, 101 kPa, x1 = 0.8501	1.185 mPa·s
298.15 K, 101 kPa, x1 = 0.8999	1.113 mPa·s
298.15 K, 101 kPa, x1 = 0.9049	1.083 mPa·s
298.15 K, 101.33 kPa, x2 = 0.1008	1.071 mPa·s
298.15 K, 101.33 kPa, x2 = 0.2042	1.286 mPa·s
298.15 K, 101.33 kPa, x2 = 0.3008	1.582 mPa·s
298.15 K, 101.33 kPa, x2 = 0.4068	2.047 mPa·s
298.15 K, 101.33 kPa, x2 = 0.5052	2.607 mPa·s
298.15 K, 101.33 kPa, x2 = 0.6026	3.31 mPa·s
298.15 K, 101.33 kPa, x2 = 0.7051	3.873 mPa·s
298.15 K, 101.33 kPa, x2 = 0.8054	3.612 mPa·s
298.15 K, 101.33 kPa, x2 = 0.9239	2.342 mPa·s
298.16 K, 101 kPa, x2 = 0.09	1.07 mPa·s
298.16 K, 101 kPa, x2 = 0.155	1.2 mPa·s
298.16 K, 101 kPa, x2 = 0.235	1.4 mPa·s
298.16 K, 101 kPa, x2 = 0.314	1.67 mPa·s
298.16 K, 101 kPa, x2 = 0.459	2.37 mPa·s
298.16 K, 101 kPa, x2 = 0.604	3.4 mPa·s
298.16 K, 101 kPa, x2 = 0.6607	3.75 mPa·s
298.16 K, 101 kPa, x2 = 0.741	3.97 mPa·s
298.16 K, 101 kPa, x2 = 0.7645	3.94 mPa·s
298.16 K, 101 kPa, x2 = 0.8044	3.65 mPa·s
298.16 K, 101 kPa, x2 = 0.8517	3.16 mPa·s
300.2 K, 101 kPa, x2 = 0.0298	1.005 mPa·s
300.2 K, 101 kPa, x2 = 0.0519	1.037 mPa·s
300.2 K, 101 kPa, x2 = 0.0694	1.062 mPa·s
300.2 K, 101 kPa, x2 = 0.0926	1.105 mPa·s
300.2 K, 101 kPa, x2 = 0.2763	1.564 mPa·s
300.2 K, 101 kPa, x2 = 0.436	2.3 mPa·s
300.2 K, 101 kPa, x2 = 0.555	3.112 mPa·s
300.2 K, 101 kPa, x2 = 0.6259	3.615 mPa·s
300.2 K, 101 kPa, x2 = 0.6897	3.957 mPa·s
300.2 K, 101 kPa, x2 = 0.7347	4.029 mPa·s
300.2 K, 101 kPa, x2 = 0.7737	3.926 mPa·s
300.2 K, 101 kPa, x2 = 0.8015	3.741 mPa·s
300.2 K, 101 kPa, x2 = 0.8783	2.782 mPa·s
300.2 K, 101 kPa, x2 = 0.9515	1.599 mPa·s
303.15 K, 101 kPa, x1 = 0.0203	1.076 mPa·s
303.15 K, 101 kPa, x1 = 0.0502	1.443 mPa·s
303.15 K, 101 kPa, x1 = 0.0703	1.716 mPa·s
303.15 K, 101 kPa, x1 = 0.1	2.112 mPa·s
303.15 K, 101 kPa, x1 = 0.1203	2.379 mPa·s
303.15 K, 101 kPa, x1 = 0.1497	2.719 mPa·s
303.15 K, 101 kPa, x1 = 0.1698	2.915 mPa·s
303.15 K, 101 kPa, x1 = 0.2003	3.156 mPa·s
303.15 K, 101 kPa, x1 = 0.22	3.263 mPa·s
303.15 K, 101 kPa, x1 = 0.2497	3.357 mPa·s
303.15 K, 101 kPa, x1 = 0.2701	3.373 mPa·s
303.15 K, 101 kPa, x1 = 0.3	3.339 mPa·s
303.15 K, 101 kPa, x1 = 0.32	3.286 mPa·s
303.15 K, 101 kPa, x1 = 0.3501	3.169 mPa·s
303.15 K, 101 kPa, x1 = 0.4002	2.914 mPa·s
303.15 K, 101 kPa, x1 = 0.4503	2.628 mPa·s
303.15 K, 101 kPa, x1 = 0.5003	2.336 mPa·s
303.15 K, 101 kPa, x1 = 0.5999	1.852 mPa·s
303.15 K, 101 kPa, x1 = 0.7	1.484 mPa·s
303.15 K, 101 kPa, x1 = 0.8002	1.216 mPa·s
303.15 K, 101 kPa, x1 = 0.8499	1.114 mPa·s
308.15 K, 101 kPa, x1 = 0.065	1.428 mPa·s
308.15 K, 101 kPa, x1 = 0.1	1.767 mPa·s
308.15 K, 101 kPa, x1 = 0.1011	1.81 mPa·s
308.15 K, 101 kPa, x1 = 0.1495	2.307 mPa·s
308.15 K, 101 kPa, x1 = 0.2	2.629 mPa·s
308.15 K, 101 kPa, x1 = 0.2004	2.661 mPa·s
308.15 K, 101 kPa, x1 = 0.2512	2.79 mPa·s
308.15 K, 101 kPa, x1 = 0.3	2.763 mPa·s
308.15 K, 101 kPa, x1 = 0.3002	2.784 mPa·s
308.15 K, 101 kPa, x1 = 0.3501	2.667 mPa·s
308.15 K, 101 kPa, x1 = 0.4	2.479 mPa·s
308.15 K, 101 kPa, x1 = 0.4009	2.474 mPa·s
308.15 K, 101 kPa, x1 = 0.5018	1.929 mPa·s
308.15 K, 101 kPa, x1 = 0.6	1.694 mPa·s
308.15 K, 101 kPa, x1 = 0.6031	1.568 mPa·s
308.15 K, 101 kPa, x1 = 0.6505	1.424 mPa·s
308.15 K, 101 kPa, x1 = 0.7005	1.305 mPa·s
308.15 K, 101 kPa, x1 = 0.755	1.183 mPa·s
308.15 K, 101 kPa, x1 = 0.8048	1.085 mPa·s
308.15 K, 101 kPa, x1 = 0.8501	1.003 mPa·s
308.15 K, 101 kPa, x1 = 0.9049	0.922 mPa·s
318.15 K, 101 kPa, x1 = 0.025	0.784 mPa·s
318.15 K, 101 kPa, x1 = 0.065	1.106 mPa·s
318.15 K, 101 kPa, x1 = 0.1011	1.387 mPa·s
318.15 K, 101 kPa, x1 = 0.12	1.533 mPa·s
318.15 K, 101 kPa, x1 = 0.1495	1.718 mPa·s
318.15 K, 101 kPa, x1 = 0.2004	1.944 mPa·s
318.15 K, 101 kPa, x1 = 0.2512	2.05 mPa·s
318.15 K, 101 kPa, x1 = 0.3002	2.056 mPa·s
318.15 K, 101 kPa, x1 = 0.3501	1.986 mPa·s
318.15 K, 101 kPa, x1 = 0.4009	1.853 mPa·s
318.15 K, 101 kPa, x1 = 0.5018	1.553 mPa·s
318.15 K, 101 kPa, x1 = 0.6031	1.274 mPa·s
318.15 K, 101 kPa, x1 = 0.6505	1.178 mPa·s
318.15 K, 101 kPa, x1 = 0.7005	1.085 mPa·s
318.15 K, 101 kPa, x1 = 0.755	0.999 mPa·s
318.15 K, 101 kPa, x1 = 0.8048	0.932 mPa·s
318.15 K, 101 kPa, x1 = 0.8501	0.868 mPa·s
318.15 K, 101 kPa, x1 = 0.9049	0.803 mPa·s

CC(O)CN(C)C (stereo not drawn) + O
viscosity [mPa·s], 101 kPa
Conditions	293.15 K	303.15 K	308.15 K	313.15 K	318.15 K	323.15 K
x1 = 0.05	–	2.279	1.935	1.656	1.441	1.264
x1 = 0.0997	–	4.278	3.466	2.852	2.393	2.027
x1 = 0.1	7.22	4.74	–	–	–	2.15
x1 = 0.1507	–	5.905	4.691	3.78	3.11	2.592
x1 = 0.2001	9.89	6.37	–	4.08	–	2.82
x1 = 0.2021	–	6.775	5.334	4.263	3.485	2.881
x1 = 0.2501	–	–	5.478	4.372	3.562	2.935
x1 = 0.3003	9.87	6.34	–	4.01	–	2.8
x1 = 0.3013	–	6.703	5.288	4.227	3.449	2.847
x1 = 0.3507	–	6.218	4.934	–	3.249	2.692
x1 = 0.3998	8.61	5.52	–	3.49	–	2.47
x1 = 0.4013	–	5.613	4.485	3.628	2.989	–
x1 = 0.4578	–	4.875	3.936	3.213	2.674	–
x1 = 0.4999	6.61	4.37	–	2.8	–	2.01
x1 = 0.5049	–	4.294	3.499	2.882	2.426	–
x1 = 0.6	4.76	3.18	–	2.17	–	1.62
x1 = 0.6009	–	3.285	2.747	2.294	1.955	–
x1 = 0.7002	3.38	2.31	–	1.69	–	1.32
x1 = 0.7054	–	2.482	2.111	1.807	1.57	–
x1 = 0.7955	–	1.957	1.697	1.479	1.305	–
x1 = 0.8	2.47	1.83	–	1.4	–	1.11
x1 = 0.8905	–	1.561	1.375	1.218	1.092	–
x1 = 0.9001	1.94	1.5	–	1.17	–	0.95
x1 = 0.9564	–	1.347	1.201	1.077	0.973	–
